In patent publication US20040127433A1, “Erythromycin derivative and medicament comprising the same” (priority 2000, published 2004):
Converted amounts (≈) assume the structure as drawn. Like-named read-outs stand apart in the source and are kept apart here. Blank lines part the entries; values can stand above or below the compound they belong to.

Columns and labels:
M.avium 20092 = test: Antibacterial activity (minimum inhibitory concentration), agar dilution method, clarithromycin-resistant strain; assay type: cell-based, Mycobacterium avium; conditions: M. avium 20092 (clarithromycin-resistant), 7H11 agar, 37° C., 7 days; for MIC: Mycobacterium avium, 168 h
Protocol: (§1) In order to evaluate excellent efficacy of the compounds of the present invention, their antibacterial spectrums against a typical acid-fast mycobacteria were measured. Clarithromycin, rifampicin and 4″-O-acetylerythromycin A 9-(O-methyloxime) [a compound disclosed in the Japanese Patent Unexamined Publication (KOKAI) No.63-107921/1988] were used as reference compounds. Ac in the formula represents acetyl group. [drawing 1313]
(§2) Antibacterial Activity Against a Typical Acid-Fast Mycobacteria
(§3) Antibacterial activities (minimum inhibitory concentrations) against clinical isolates of a typical acid-fast mycobacteria were measured by the agar dilution method according to the standard method of the Japan Society of Chemotherapy. About 5 μl of bacterial suspension (adjusted to […]) were spotted on the 7H11 agar plates containing the test compounds. The minimum inhibitory concentrations were determined by the growth or no growth of the bacteria after incubation at 37° C. for 7 days. The abbreviation M in the table represents Mycobacterium. The compounds of the present invention had more excellent antibacterial activity than the reference compounds against a typical acid-fast mycobacteria including clarithromycin-resistant strains (M.avium 20092 and other bacteria).

[1] = tested on: clinical isolates of a typical acid-fast mycobacteria; test: microbe, parasite or virus in culture; assay type: cell-based, Mycobacterium; conditions: 7H11 agar, 37° C., 7 days; for MIC: 168 h
Protocol: as §1, §2, §3

[2] = Mycobacterium avium, read-out: Minimum inhibitory concentration, M. avium 20034
[3] = Mycobacterium avium, read-out: Minimum inhibitory concentration, M. avium 20045
[4] = Mycobacterium avium, read-out: Minimum inhibitory concentration, M. avium 20096
[5] = Mycobacterium intracellulare, read-out: Minimum inhibitory concentration, M. intracellulare 20066
[6] = Mycobacterium intracellulare, read-out: Minimum inhibitory concentration, M. intracellulare 20067
[7] = Mycobacterium intracellulare, read-out: Minimum inhibitory concentration, M. intracellulare 20073
[8] = Mycobacterium intracellulare, read-out: Minimum inhibitory concentration, M. intracellulare 20075

Compound: 4″-O-Acetyl-2′-O-benzylaminocarbonylerythromycin A 9-[O-(3-cyclo-hexylpropyl)oxime] [Example 40]
- Minimum inhibitory concentration (M.avium 20092): 0.78 µg/mL
- Minimum inhibitory concentration ([1]; M. avium 20034): 0.39 µg/mL
- Minimum inhibitory concentration ([1]; M. avium 20045): 0.78 µg/mL
- Minimum inhibitory concentration ([1]; M. avium 20096): 0.78 µg/mL
- Minimum inhibitory concentration ([1]; M. intracellulare 20066): 0.20 µg/mL
- Minimum inhibitory concentration ([1]; M. intracellulare 20067): 0.78 µg/mL
- Minimum inhibitory concentration ([1]; M. intracellulare 20073): 0.78 µg/mL
- Minimum inhibitory concentration ([1]; M. intracellulare 20075): 0.78 µg/mL

- melting point: 107 to 110 °C
Compound: CC[C@H]1OC(=O)[C@H](C)[C@@H](O[C@H]2C[C@@](C)(OC)[C@@H](O)[C@H](C)O2)C[C@@H](O[C@@H]2O[C@H](C)C[C@H](N(C)C)[C@H]2OC(=O)NCc2ccccc2)C(C)(O)C[C@@H](C)C(=NOCCCOc2ccccc2)[C@H](C)[C@@H](O)[C@]1(C)O (some centres unmarked) [Example 34]

Compound: CCCCCCCCON=C1[C@H](C)CC(C)(O)[C@H](O[C@@H]2O[C@H](C)C[C@H](N(C)C)[C@H]2OC(=O)NCc2ccccc2)C[C@H](O[C@H]2C[C@@](C)(OC)[C@@H](OC(C)=O)[C@H](C)O2)[C@@H](C)C(=O)O[C@H](CC)[C@@](C)(O)[C@H](O)[C@H]1C (some centres unmarked) [Example 94]
- MIC (M.avium 20092): 0.39 µg/mL (≈ 0.381 µM)
- MIC [1, 2]: 0.39 µg/mL (≈ 0.381 µM)
- MIC [1, 3]: 0.78 µg/mL (≈ 0.763 µM)
- MIC [1, 4]: 0.39 µg/mL (≈ 0.381 µM)
- MIC [1, 5]: 0.39 µg/mL (≈ 0.381 µM)
- MIC [1, 6]: 0.39 µg/mL (≈ 0.381 µM)
- MIC [1, 7]: 0.39 µg/mL (≈ 0.381 µM)
- MIC [1, 8]: 0.39 µg/mL (≈ 0.381 µM)

Compound: CC[C@H]1OC(=O)[C@H](C)[C@@H](O[C@H]2C[C@@](C)(OC)[C@@H](O)[C@H](C)O2)[C@H](C)[C@@H](O[C@@H]2O[C@H](C)C[C@H](N(C)C)[C@H]2O)[C@](C)(OC)C[C@@H](C)C(=O)[C@H](C)[C@@H](O)[C@]1(C)O [compound 1, Clarithromycin]
- MIC (M.avium 20092): > 50 µg/mL
- MIC [1, 2]: 3.13 µg/mL (≈ 4.18 µM)
- MIC [1, 3]: 1.56 µg/mL (≈ 2.09 µM)
- MIC [1, 4]: > 50 µg/mL
- MIC [1, 5]: 3.13 µg/mL (≈ 4.18 µM)
- MIC [1, 6]: 1.56 µg/mL (≈ 2.09 µM)
- MIC [1, 7]: 1.56 µg/mL (≈ 2.09 µM)
- MIC [1, 8]: 3.13 µg/mL (≈ 4.18 µM)

Compound: CO[C@H]1/C=C/O[C@@]2(C)Oc3c(C)c(O)c4c(O)c(c(/C=N/N5CCN(C)CC5)c(O)c4c3C2=O)NC(=O)/C(C)=C\C=C\[C@H](C)[C@H](O)[C@@H](C)[C@@H](O)[C@@H](C)[C@H](OC(C)=O)[C@@H]1C [compound 2, rifampicin]
- MIC (M.avium 20092): 50 µg/mL (≈ 60.8 µM)
- MIC [1, 2]: 12.5 µg/mL (≈ 15.2 µM)
- MIC [1, 3]: 3.13 µg/mL (≈ 3.8 µM)
- MIC [1, 4]: 3.13 µg/mL (≈ 3.8 µM)
- MIC [1, 5]: 3.13 µg/mL (≈ 3.8 µM)
- MIC [1, 6]: 1.56 µg/mL (≈ 1.9 µM)
- MIC [1, 7]: 3.13 µg/mL (≈ 3.8 µM)
- MIC [1, 8]: 3.13 µg/mL (≈ 3.8 µM)

Compound: CC[C@H]1OC(=O)[C@H](C)[C@@H](O[C@H]2C[C@@](C)(OC)[C@@H](OC(C)=O)[C@H](C)O2)[C@H](C)[C@@H](O[C@@H]2O[C@H](C)C[C@H](N(C)C)[C@H]2O)[C@](C)(O)C[C@@H](C)C(=NOC)[C@H](C)[C@@H](O)[C@]1(C)O [compound 3, 4″-O-acetylerythromycin A 9-(O-methyloxime)]
- Minimum inhibitory concentration (M.avium 20092): >50 µg/mL
- Minimum inhibitory concentration ([1]; M. avium 20034): >50 µg/mL
- Minimum inhibitory concentration ([1]; M. avium 20045): 12.5 µg/mL (≈ 15.5 µM)
- Minimum inhibitory concentration ([1]; M. avium 20096): >50 µg/mL
- Minimum inhibitory concentration ([1]; M. intracellulare 20066): 12.5 µg/mL (≈ 15.5 µM)
- Minimum inhibitory concentration ([1]; M. intracellulare 20067): 6.25 µg/mL (≈ 7.76 µM)
- Minimum inhibitory concentration ([1]; M. intracellulare 20073): 12.5 µg/mL (≈ 15.5 µM)
- Minimum inhibitory concentration ([1]; M. intracellulare 20075): 12.5 µg/mL (≈ 15.5 µM)
